Test results: US20220144775A1, “HYDRAZIDE COMPOUND AND KINASE INHIBITOR” (NISSAN CHEMICAL CORPORATION, priority 2019, published 2022)

What was measured:
colon organoid = assay: Mouse colon organoid culture; assay type: cell-based; details: day 21 of culture, 10 μM
Method: (§1) 7-Week-old male C57BL/6N mice were purchased from CHARLES RIVER LABORATORIES JAPAN, INC. After the acclimation period, the small intestine and colon were isolated under anesthesia. Crypts were collected from the excised small intestine and colon according to the protocol of IntestiCult (trade mark) Organoid Growth Medium. To be specific, the inside of the intestine was washed with 1 mL of cold PBS, then incised vertically, and washed 3 times with 1 mL of cold PBS. The intestine was transferred to a 10 cm petri dish filled with cold PBS, washed thoroughly again, and transferred to a 50 mL tube containing 15 mL of cold PBS while cutting into 2 mm pieces. […] The number of crypts contained in 10 μL of the suspension was counted under a microscope to determine the concentration, and the mixture was dispensed into a 15 mL tube at 800 crypts/tube, and centrifuged at 4° C., 200 g×5 min. […] Organoids were image-analyzed over time by Cell3iMager duos (SCREEN Holdings Co., Ltd.). For image analysis, the number of crypts having a diameter of 30-200 μm was counted as the number of seeded crypts on the first day of culture, and then those grown to 70 μm or more over time were counted as organoids, and the organoid formation rate from the crypts was calculated. At that time, the average diameter of the organoids measured at the same time was calculated. […]

small intestine organoid = assay: Mouse small intestine organoid culture; assay type: cell-based; details: day 9 of culture, 10 μM
Method: as §1

CC/C(=N\NC(=O)C(C)Nc1cncc(F)c1)c1ccc(O)c(C)c1O (stereo not shown) [A-007]
formation rate (%) (colon organoid; DMSO 14): 49%
average diameter (μm) (colon organoid; DMSO 207): 251 μm
formation rate (%) (small intestine organoid; DMSO 39): 70%
average diameter (μm) (small intestine organoid; DMSO 202): 257 μm
